Results taken from PubChem BioAssay (NCI).
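Five concentrations, 48 hours, 96-well plates. Abbreviation: GI50, concentration required for 50% inhibition of growth. TGI denotes the concentration required for complete inhibition of growth.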

Experiments:
Test in all cases: DTP human tumour cell line panel, 48 h
RXF 393 renal = test system: RXF 393 renal
UACC-62 melanoma = test system: UACC-62 melanoma
OVCAR-8 ovarian = test system: OVCAR-8 ovarian
DU-145 prostate = test system: DU-145 prostate
PC-3 prostate = test system: PC-3 prostate
UACC-257 melanoma = test system: UACC-257 melanoma
TK-10 renal = test system: TK-10 renal
SK-MEL-5 melanoma = test system: SK-MEL-5 melanoma
SK-MEL-28 melanoma = test system: SK-MEL-28 melanoma
SNB-19 CNS = test system: SNB-19 CNS

Structure (SMILES) | TGI (RXF 393 renal) [µM] | TGI (UACC-62 melanoma) [µM] | TGI (OVCAR-8 ovarian) [µM] | TGI (DU-145 prostate) [µM] | TGI (PC-3 prostate) [µM] | TGI (UACC-257 melanoma) [µM] | TGI (TK-10 renal) [µM] | TGI (SK-MEL-5 melanoma) [µM] | TGI (SK-MEL-28 melanoma) [µM] | TGI (SNB-19 CNS) [µM] | GI50 (UACC-62 melanoma) [µM] | GI50 (DU-145 prostate) [µM] | GI50 (PC-3 prostate) [µM] | GI50 (UACC-257 melanoma) [µM] | GI50 (SK-MEL-5 melanoma) [µM]
O=C(O)CN(CC(=O)O)C(C(=O)O)c1ccccc1 (stereo unspecified) | > 100 | > 100 | > 100 | > 100 | > 100 | > 100 | > 100 | > 100 | > 100 | > 100 | – | – | – | – | –
O=C1CS(=O)(=O)C(c2cccc(Oc3ccccc3)c2)N1c1cc(Cl)ccc1Cl (stereo unspecified) | – | 31.9 | 43.9 | 43.3 | 32 | 55.9 | 90.6 | 31.2 | 70.4 | 57 | – | – | – | – | –
CN(C)c1cccc2c1C(=O)C=CC21c2ccc(N(C)C)c3c(N(C)C)ccc(c23)C(c2ccccc2)C1c1ccccc1 (stereo unspecified) | 36.3 | 54.7 | 27.3 | > 100 | 30.2 | 27.2 | 25.5 | 27.5 | 37.5 | 44.4 | – | – | – | – | –
COC(=O)C1(O)C(c2ccccc2)=NC2(C)CCCC21 (stereo unspecified) | > 100 | > 100 | > 100 | > 100 | > 100 | > 100 | > 100 | > 100 | > 100 | > 100 | – | – | – | – | –
C=C1C(=O)C23C(O)CC4C5(C)CCCC4(C(O)OC5)C2C(OC(C)=O)CC1C3O (stereo unspecified) | – | 19.8 | 14.1 | – | – | – | 23.1 | 31.1 | 22.7 | 28.1 | – | – | – | – | –
CC(=O)n1nc(-c2ccccc2)n(/N=C/c2ccc([N+](=O)[O-])o2)c1=O | 10.4 | 23.8 | 33.3 | 16.7 | 30.9 | 12.2 | 25.5 | 14.8 | 22.3 | 36.9 | – | – | – | – | –
CC(=O)Oc1c(C)c(C)c2c(c1C)CCC(C)(CC(=O)OCCCCCCCCCCC[P+](c1ccccc1)(c1ccccc1)c1ccccc1)O2 (stereo unspecified) | – | 0.982 | – | 1.34 | 0.976 | 0.78 | – | 0.359 | – | – | 0.291 | 0.384 | 0.194 | 0.268 | 0.191
c1ccc2c(c1)CCCC/C2=N/OCC1CO1 (stereo unspecified) | > 100 | – | > 100 | – | – | > 100 | > 100 | > 100 | > 100 | – | – | – | – | – | –
CC1=NNC(=O)C1C1CC(c2c[nH]c3ccccc23)=NN=C1Cl (stereo unspecified) | > 100 | > 100 | > 100 | > 100 | > 100 | > 100 | > 100 | > 100 | > 100 | > 100 | – | – | – | – | –
O=S1(=O)C[C@@H](NCc2ccccc2)[C@H](NCc2ccccc2)C1 | > 100 | > 100 | > 100 | > 100 | > 100 | > 100 | > 100 | > 100 | > 100 | > 100 | – | – | – | – | –
CN(C)c1ccc(Cc2cc3c(O)ccc(O)c3cc(Cc3ccc(N(C)C)cc3)c2=O)cc1 | 31.9 | 65.9 | 77.4 | > 60 | 32.7 | 48.9 | 33.6 | 39.3 | 37.4 | > 63.4 | – | – | – | – | –
